From BindingDB's records for doi:10.1021/bi501086s (The University of Texas, 2014)

molecular target: T1, Acylase (Pseudomonas aeruginosa, UniProt A0A0G5TC92); assay: PVdQ Inhibition Assay; conditions: pH 8
T1 sequence (A0A0G5TC92 whole entry): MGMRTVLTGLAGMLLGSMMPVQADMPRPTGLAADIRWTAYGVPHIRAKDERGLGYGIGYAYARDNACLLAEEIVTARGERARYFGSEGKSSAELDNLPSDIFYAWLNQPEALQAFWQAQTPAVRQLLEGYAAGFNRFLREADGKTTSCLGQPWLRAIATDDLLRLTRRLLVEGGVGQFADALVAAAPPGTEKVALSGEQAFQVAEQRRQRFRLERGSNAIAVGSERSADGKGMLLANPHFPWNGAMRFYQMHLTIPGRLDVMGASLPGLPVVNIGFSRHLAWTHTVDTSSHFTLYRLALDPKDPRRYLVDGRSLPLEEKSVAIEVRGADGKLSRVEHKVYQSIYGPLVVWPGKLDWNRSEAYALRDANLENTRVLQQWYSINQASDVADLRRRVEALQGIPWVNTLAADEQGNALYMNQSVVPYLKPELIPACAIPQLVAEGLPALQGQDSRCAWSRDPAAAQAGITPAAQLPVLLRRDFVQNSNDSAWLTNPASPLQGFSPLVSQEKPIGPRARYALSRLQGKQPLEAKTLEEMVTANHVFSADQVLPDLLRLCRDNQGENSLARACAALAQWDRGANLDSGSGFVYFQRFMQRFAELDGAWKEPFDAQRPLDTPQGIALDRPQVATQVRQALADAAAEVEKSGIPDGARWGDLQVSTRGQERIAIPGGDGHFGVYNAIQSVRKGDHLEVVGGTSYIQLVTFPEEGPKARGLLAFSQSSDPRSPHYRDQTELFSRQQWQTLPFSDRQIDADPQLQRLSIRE
Procedure: Briefly, stock solutions of the colorimetric PvdQ substrate (4-nitrophenyl dodecanoate) were prepared in methanol and stock solutions of each n-alkylboronic acid inhibitor in DMSO. […] Each reaction was initiated by addition of purified PvdQ (10 nM) and product formation was monitored by measuring the increase in absorbance at 402 nm continuously.

Ki [µM]	Structure (SMILES)
2000	CCB(O)O [1-Ethylboronic acid (C2-B(OH)2)]
2.1	CCCCCCB(O)O [1-Hexylboronic acid (C6-B(OH)2)]
4700	CCCB(O)O [1-Propylboronic acid (C3-B(OH)2)]
550	CCCCB(O)O [Borinic acid derivative]
